The nature of assay [1]: Rapid antimicrobial susceptibility testing (MIC) by flatbed-scanner imaging of doubling dilutions in a well plate, cefepime. It is filed as cell-based. The text has this: The dispensing technology may use well plate 205, which may be a standard 96-, 384-, or 1536-well microtiter plate. Well plate 205 contains doubling dilutions of antimicrobials. Any antimicrobials can be used. Antibiotics are mentioned as an example of an antimicrobial, but any antimicrobial or other treatment agent (e.g. antifungal, antiviral, anti-parasitic) can be used unless context clearly dictates otherwise. The doubling dilution series can be prepared at the time of use, or plates with doubling dilutions can be pre-made and stored with lyophilized antibiotics or with antibiotics in broth that are frozen and thawed before use. […] The positive blood culture broth or dilutions of the positive blood culture broth can be added to the wells using any of several liquid handling devices or manually or through use of an inkjet printer 210 which we determined can quantitatively print out positive blood culture broth.
(§1) Typically positive blood-culture broth has organisms at 5×10^9 colony-forming units per mL. In our experiments, we determined that this could be diluted 5-fold in sterile water and 0.3% tween-20 and this dilution dispensed at 250 nl per well to create a starting inoculum of approximately 2.5×10^7 per mL in wells in a 384 well plate containing a volume of 10 μl. […]

The test system of the next assay is E. coli. The assay can be described thus: Rapid antimicrobial susceptibility testing (MIC) by flatbed-scanner imaging of doubling dilutions in a well plate, gentamicin. The assay is classed as cell-based. Also noted: unit not given here. The following applies: 37° C.
Excerpt: The dispensing technology may use well plate 205, which may be a standard 96-, 384-, or 1536-well microtiter plate. Well plate 205 contains doubling dilutions of antimicrobials. Any antimicrobials can be used. Antibiotics are mentioned as an example of an antimicrobial, but any antimicrobial or other treatment agent (e.g. antifungal, antiviral, anti-parasitic) can be used unless context clearly dictates otherwise. The doubling dilution series can be prepared at the time of use, or plates with doubling dilutions can be pre-made and stored with lyophilized antibiotics or with antibiotics in broth that are frozen and thawed before use. In embodiments, 50 μl of broth are added to wells in well plate 205 and desired two-fold dilutions of antibiotics are added to wells using inkjet printing technology 210 as described in WO 2017/218202 A1, the entire contents of which are incorporated by reference for all purposes. In other embodiments, antibiotics can be added either manually or with any of several suitable liquid handling devices. Positive blood culture broth is then added to the microtiter wells. The positive blood culture broth or dilutions of the positive blood culture broth can be added to the wells using any of several liquid handling devices or manually or through use of an inkjet printer 210 which we determined can quantitatively print out positive blood culture broth.
as §1
We have made use of a CCD flatbed scanner to scan plates. In our example, the plates are incubated in a separate incubator and placed on a plate bed scanner at different time points for reading. Using a flatbed scanner, we have determined that accurate AST results can be obtained with incubation times of 1.5 hours or less. […]

≈ marks a conversion by molar mass, not a printed value.

Consider `CO/N=C(\C(=O)N[C@@H]1C(=O)N2C(C(=O)[O-])=C(C[N+]3(C)CCCC3)CS[C@H]12)c1csc(N)n1` [cefepime], for which the MIC in assay [1] (3 hours of incubation (graph 630)) and in assay [1] (4 hours of incubation (graph 640)) was 31 mg/L (≈ 64.5 µM) in each case.
With gentamicin, the MIC with E. coli (2 hours of incubation (graph 520)), in the assay with E. coli (3 hours of incubation (graph 530)) and against E. coli (4 hours of incubation (graph 540)) was 1.0 throughout.

Source of the values: US12655460B2, “Rapid antimicrobial susceptibility testing by image analysis” (Beth Israel Deaconess Medical Center, Inc., priority 2019, dated 2026).
